The results in this text go back to PubChem BioAssay (NCI).

Among the test systems are A498 renal; MALME-3M melanoma; NCI-H460 lung; OVCAR-8 ovarian; SF-295 CNS; SNB-19 CNS; SF-539 CNS; HCC-2998 colon.
Test in all cases: inhibition of tumour cell growth, NCI panel, 48 h

SMILES strings stand for the structures.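 Growth conditions: 96-well plates. Treatment: test compound, 48 hours, 5 concentrations. Analysis: linear interpolation between bracketing concentrations; unreached endpoints set to highest concentration. Here, GI50 denotes the concentration required for 50% inhibition of growth. TGI denotes the concentration required for complete inhibition of growth.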 Where a SMILES comes first, the peptide text is derived from it. The star is where a group is joined. Boc = CC(C)(C)OC(=O)*

For `NC12CC3CC4C1CC1CC2C(C3)C4(N)C1`, the TGI with A498 renal, in the experiment on MALME-3M melanoma, with NCI-H460 lung, with OVCAR-8 ovarian, with SF-295 CNS and with SNB-19 CNS was above 100 µM throughout.

Take `CC(NC(=O)C(N)CC(=O)O)NC(=O)N1CCOCC1` (centres undefined): the TGI with A498 renal, in the experiment with MALME-3M melanoma, with NCI-H460 lung, in the experiment with OVCAR-8 ovarian, in the experiment on SF-295 CNS and with SF-539 CNS was above 100 µM throughout. Moreover, the TGI in the experiment on SNB-19 CNS is above 100 µM.

In the case of `COc1cc(/C=C/C(=O)N[C@@H]2C(=O)N3[C@@H]2SC(C)(C)[C@@H]3C(=O)O)cc(OC)c1OC`, the TGI in the experiment with A498 renal, in the experiment on HCC-2998 colon, in the experiment on NCI-H460 lung, in the experiment with OVCAR-8 ovarian, with SF-295 CNS and in the experiment on SF-539 CNS was above 100 µM in each case. Further, in the experiment on SNB-19 CNS, the TGI is above 100 µM.

`Fc1cc(-c2ncc(Cl)cc2Cl)c2cccccc1-2`: the TGI in the experiment on HCC-2998 colon, in the experiment on MALME-3M melanoma, in the experiment on NCI-H460 lung, in the experiment on OVCAR-8 ovarian, in the experiment on SF-295 CNS and with SF-539 CNS was above 100 µM in each case. Besides, the TGI with SNB-19 CNS was above 100 µM.

Turning to `COc1cc(C(=O)Nc2c3ccccc3nc3ccccc23)cc(OC)c1OC`, the TGI in the experiment on HCC-2998 colon, in the experiment on MALME-3M melanoma, in the experiment on NCI-H460 lung, with OVCAR-8 ovarian, with SF-295 CNS and in the experiment on SF-539 CNS was above 100 µM in each case. In addition, in the experiment with SNB-19 CNS, the TGI was above 100 µM.

Consider `CC(C)CC1[C@@H](OCc2ccccc2)COS(=O)(=O)N1Cc1ccccc1` (some centres undefined), for which the TGI with A498 renal, in the experiment with MALME-3M melanoma, with NCI-H460 lung, with OVCAR-8 ovarian, with SF-295 CNS and with SF-539 CNS was above 100 µM throughout. Further, in the experiment on SNB-19 CNS, the TGI is above 100 µM.

Turning to `O=C1CC(c2ccc[nH]2)=NN1c1ccccc1`, the TGI in the experiment on A498 renal, with MALME-3M melanoma, in the experiment with NCI-H460 lung, with OVCAR-8 ovarian, in the experiment with SF-295 CNS and in the experiment with SF-539 CNS was above 100 µM in each case. The TGI in the experiment with SNB-19 CNS is above 100 µM.

Regarding `CCOCC(NC(=O)C(CC(C)C)NC(=O)OC(C)(C)C)C(N)=O` (stereo not drawn) (Boc-Leu-Ser(Et)-NH2; configuration not given here), the TGI in the experiment on A498 renal, with MALME-3M melanoma, in the experiment with OVCAR-8 ovarian, in the experiment on SF-295 CNS, in the experiment on SF-539 CNS and with SNB-19 CNS was above 100 µM in each case.

As for `CC(C)(C)OC(=O)Nc1cc(-c2ccccc2)co1`, the TGI in the experiment on A498 renal, with HCC-2998 colon, with OVCAR-8 ovarian, in the experiment on SF-295 CNS, with SF-539 CNS and in the experiment with SNB-19 CNS was above 100 µM throughout.

For `CCOC(=O)c1c(C)[nH]c(/C=C2\N=C(c3ccc[nH]3)C=C2OC)c1C`, the GI50 in the experiment on A498 renal was 1.87 µM; in the experiment on HCC-2998 colon it was 0.0497 µM; in the experiment on OVCAR-8 ovarian, 0.0358 µM; in the experiment on SF-295 CNS it was 0.105 µM; in the experiment with SF-539 CNS, 0.0606 µM; in the experiment with SNB-19 CNS, 0.735 µM. The TGI is 5.7 µM in the experiment with A498 renal; 1.18 µM with HCC-2998 colon; 1.61 µM in the experiment on OVCAR-8 ovarian; 0.624 µM in the experiment on SF-295 CNS; 1.28 µM in the experiment with SF-539 CNS; above 42.3 µM with SNB-19 CNS.

For the molecule `Cn1c2ccccc2n2c(=O)c3cccnc3c(C#N)c12`, the TGI in the experiment with A498 renal, with MALME-3M melanoma, in the experiment with NCI-H460 lung, in the experiment with OVCAR-8 ovarian, with SF-295 CNS and in the experiment on SF-539 CNS was above 100 µM each time.

As for `CC(=N/NC(=S)N1CCCCC1)/C(C)=N\NC(=S)N1CCCCC1`, the TGI in the experiment on A498 renal came to 2.86 µM; in the experiment on HCC-2998 colon, 3.48 µM; with MALME-3M melanoma it was 3.61 µM; with NCI-H460 lung it was 3.6 µM; with SF-295 CNS it was 3.74 µM; in the experiment with SF-539 CNS, 5.58 µM. The molecule further came in with a TGI in the experiment on SNB-19 CNS of 3.54 µM.

As for `Cc1ccc(/C=N/NC2=NCCN2)s1`, the TGI with HCC-2998 colon, with MALME-3M melanoma, with OVCAR-8 ovarian, with SF-295 CNS, in the experiment with SF-539 CNS and in the experiment on SNB-19 CNS was above 100 µM throughout.

Take `O=c1c(-c2ccccc2Cl)coc2cc(F)ccc12`: the TGI in the experiment with A498 renal was 47.2 µM; in the experiment on NCI-H460 lung, above 100 µM; in the experiment on OVCAR-8 ovarian, above 100 µM; with SF-295 CNS it was 48.6 µM; in the experiment with SF-539 CNS it was 31.6 µM; with SNB-19 CNS, above 100 µM.

With `COc1ccccc1N=N/C(=N/NC(=O)c1ccc(C)cc1)c1ccc(N(CCC#N)CCC#N)cc1OC`, the TGI in the experiment on A498 renal is 55.8 µM; in the experiment on HCC-2998 colon, above 100 µM; in the experiment on MALME-3M melanoma, 81.9 µM; with NCI-H460 lung it was above 100 µM; in the experiment with OVCAR-8 ovarian, above 100 µM; in the experiment on SF-295 CNS, above 100 µM. For the same molecule, the TGI in the experiment on SNB-19 CNS was above 100 µM.
